Consider 20 molecules from article PMC7036849, “Development of Coumarin-Based Hydroxamates as Histone Deacetylase Inhibitors with Antitumor Activities” (Molecules, 2020).

The test system of one test is A549. Description: SRB antiproliferative assay, A549. The conditions noted are these: Homo sapiens, A549, 48 h, read-out: IC50 A549. Format: cell-based. As to the method: (§1) Cancer cells (6 × 10^3 per well) were inoculated into 96-well plates. The treatment was carried out for 48 h, followed by SRB staining, and the absorption value was measured at 540 nm by a microplate reader.
A general note: Sulforhodamine B stains cellular protein and so reports cell mass.

Another test relates to H157. Description: SRB antiproliferative assay, H157. Type of test: cell-based. The conditions noted are these: Homo sapiens, NCI-H157, 48 h, read-out: IC50 H157. The method, then: Cancer cells (6 × 10^3 per well) were inoculated into 96-well plates. The treatment was carried out for 48 h, followed by SRB staining, and the absorption value was measured at 540 nm by a microplate reader. SAHA was used as a positive control, and the independent experiment was performed three times.

The test system of test [1] is human liver epithelial cells (L-02). The test can be described thus: Antiproliferative activity against normal cells, L-02. Type of test: cell-based. The following applies: Epithelial cell, read-out: Antiproliferative IC50 L-02. The text has this: (§2) Two normal cell lines were selected: human lung epithelial cells (Beas-2B) and human liver epithelial cells (L-02).
The subject of a further test is MCF-7. Description: SRB antiproliferative assay, MCF-7. Type of test: cell-based. The following applies: Homo sapiens, MCF7, 48 h, read-out: IC50 MCF-7. As to the method:
as §1

In test [2] the test system is human lung epithelial cells (Beas-2B). The test can be described thus: Antiproliferative activity against normal cells, Beas-2B. Format: cell-based. The following applies: read-out: Antiproliferative IC50 Beas-2B.
Source text: as §2

Another test has as its system MDA-MB-231. The test can be described thus: SRB antiproliferative assay, MDA-MB-231. The following applies: Homo sapiens, MDA-MB-231, 48 h, read-out: IC50 MDA-MB-231. Type of test: cell-based. The method, then: as §1
The next test concerns the target HDAC1 (Homo sapiens, UniProt Q13547). Description: HDAC1 inhibitory assay (Boc-Lys(Ac)-AMC substrate). Format: biochemical. The conditions noted are these: n ≥ 3, SD <20% of the mean; read-out: IC50 against HDAC1. As to the method: The enzyme inhibitory assay was conducted by Shanghai ChemPartner Corporation (Shanghai, China). […] Then the lysine developer was added to terminate the reaction, and the samples were further incubated at 37 °C for 30 min. […] Three independent experiments with triplicate were carried out.

The subject of test [3] is MDA-MB-231 cells. The test can be described thus: Colony formation assay. The following applies: MDA-MB-231, seven days, compared with SAHA.
Protocol: One week after the addition of the drugs, the medium was removed. The cells were then washed three times with PBS and fixed in methanol for 5 min. The cells were lastly stained with 1% crystal violet (Beyotime) for 15 min and washed with PBS. Images were collected using a scanning apparatus (Canon, Tokyo, Japan).
The test system of test [4] is MDA-MB-231 cells. The test can be described thus: Apoptosis analysis (annexin V, flow cytometry). The conditions noted are these: 48 h. On the technique in general: In flow cytometry, cells or beads pass a laser one at a time.
Protocol: Briefly, cell apoptosis analysis was measured by annexin V FITC/PI assay using Annexin v-PE/7-AAD Apoptosis Detection kit (BD). […] After 48 h, the drug-treated cells were washed three times with PBS; the cell suspension was collected and centrifuged; and the supernatant was removed.
The subject of the next test is acetyl-histone H4. Description: Western blot analysis, acetyl-histone H4. Type of test: cell-based, human. The following applies: MDA-MB-231, 1, 2 and 5 µM, 48 h. As to the method: (§3) Based on the aforementioned results, western blot analysis was further performed by immunoblotting assay (β-actin as the negative control).
(§4) Briefly, MDA-MB-231 cells were lysed in lysis buffer (50 mM Tris-HCl pH 8.0, 5 mM EDTA, 100 mM NaCl, 0.5% NP-40, 1 mM PMSF) and then centrifuged for 10 min at 12,000 r, and the insoluble debris was discarded. Cell lysates were further analyzed with SDS-PAGE and western blotting with indicated antibodies. After treatment with 13a and 13c for indicated times, cells were harvested with RIPA buffer (150 mM sodium chloride, 1% Triton X-100, 0.5% sodium deoxycholate, 0.1% SDS, 50 mM Tris and cocktails of protease and phosphatase inhibitors) for 10 min at room temperature and boiled for another 10 min. Equal amounts of total proteins (35 μg) underwent 15% SDS-PAGE and were electroblotted onto the polyvinylidene difluoride (PVDF) membrane. The membrane was blocked with 5% (w/v) fat-free dry milk in PBS-Tween 20 (PBST; 0.05%) for 1 h and incubated with primary antibody (1:1000 in PBST) at 4 °C overnight. […] The relative quantity of proteins was analyzed via the Image J software (NIH, Bethesda, MD, USA).
(§5) (B) Quantitative analysis. The relative levels of Ac-H3 and Ac-H4 used to control β-actin were determined by densimetric scanning.
Background: A western blot detects proteins with antibodies after separation by electrophoresis.

The test system of another test is solid tumor cell lines. Description: Antiproliferative activity, summary over tumor cell lines. Type of test: cell-based. The conditions noted are these: Homo sapiens, read-out: IC50 values against solid tumor cell lines (range). As to the method: as §1
In another test the test system is acetyl-histone H3. Description: Western blot analysis, acetyl-histone H3. Format: cell-based, human. The conditions noted are these: MDA-MB-231, 1, 2 and 5 µM, 48 h. The method, then:
as §3, §4, §5

In test [5] the test system is MDA-MB-231 cells. Description: Cell cycle arrest analysis (PI, flow cytometry). The following applies: for cell cycle arrest: MDA-MB-231.
Protocol: After 24 h of cell cycle treatment, the cells were washed three times with PBS, and the cell suspension was collected, centrifuged again, and then added to an ethanol fixative (70%) and placed in a refrigerator for overnight storage. After washing, the dye was added and stained with PI containing RNaseA solution for 30 min at 37 °C, and then analyzed by FACS.

Sequence of HDAC1 (Q13547 whole entry): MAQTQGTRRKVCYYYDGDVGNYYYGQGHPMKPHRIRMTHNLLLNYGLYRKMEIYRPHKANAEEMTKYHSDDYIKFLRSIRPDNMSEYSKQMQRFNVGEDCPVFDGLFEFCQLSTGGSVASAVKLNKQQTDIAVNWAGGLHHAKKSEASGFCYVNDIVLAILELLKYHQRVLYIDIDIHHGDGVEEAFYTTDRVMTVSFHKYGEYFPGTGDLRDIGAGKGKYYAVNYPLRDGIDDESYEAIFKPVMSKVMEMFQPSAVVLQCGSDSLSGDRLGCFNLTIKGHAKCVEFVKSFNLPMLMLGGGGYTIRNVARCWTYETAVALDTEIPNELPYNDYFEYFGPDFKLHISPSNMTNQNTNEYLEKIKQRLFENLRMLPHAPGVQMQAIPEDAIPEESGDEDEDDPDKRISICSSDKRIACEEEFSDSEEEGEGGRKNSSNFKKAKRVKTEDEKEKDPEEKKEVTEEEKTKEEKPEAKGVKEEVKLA

For `COCCCOc1ccc2c(OCCCCCCCC(=O)NO)cc(=O)oc2c1` [Compound 13d, N-Hydroxy-8-((7-(3-methoxypropoxy)-2-oxo-2H-chromen-4-yl)oxy)octanoic acid], the concentration for half-maximal inhibition (IC50) (commonly the midpoint of a concentration-inhibition curve) in the test with A549 is 4.11 ± 0.65 µM; with H157, 2.36 ± 0.5 µM; in [1] it was greater than 20 µM; in the test with MCF-7, 5.23 ± 1.63 µM; in test [2], greater than 20 µM; in the test on MDA-MB-231, 1.7 ± 0.39 µM.

For `O=C(CCCCCCCOc1cc(=O)oc2cc(OCC3CCCCC3)ccc12)NO` [Compound 13g], the half-maximal inhibitory concentration (IC50) at HDAC1 is 0.00501 µM.

For `CCCCOc1ccc2c(OCCCCCCCC(=O)NO)cc(=O)oc2c1` [Compound 13b, N-Hydroxy-8-((7-butoxy-2-oxo-2H-benzopyran-4-yl)oxy)octanoic acid], the IC50 with A549 was 4.09 ± 1.54 µM; in the test on H157, 1.2 ± 0.17 µM; in [1], greater than 20 µM; with MCF-7, 2.93 ± 0.49 µM; in [2], greater than 50 µM; in the test on MDA-MB-231 it was 1.97 ± 0.56 µM.

For the molecule `Cc1cccc(COc2ccc3c(OCCCCCCCC(=O)NO)cc(=O)oc3c2)c1` [Compound 14q, N-Hydroxy-8-((7-((3-methylbenzyl)oxy)-2-oxo-2H-chromen-4-yl)oxy)octanoic acid], the concentration for half-maximal inhibition (IC50) at HDAC1 is 0.00295 µM.

Turning to `O=C(CCCCCCCOc1cc(=O)oc2cc(OCc3ccc(Br)cc3)ccc12)NO` [Compound 14k, N-Hydroxy-8-((7-((4-bromobenzyl)oxy)2-oxo-2H-chromen-4-yl)oxy)octanoic acid], the IC50 on HDAC1 came to 0.00302 µM.

Consider `COCCOc1ccc2c(OCCCCCCCC(=O)NO)cc(=O)oc2c1` [Compound 13c, N-Hydroxy-8-((7-(2-methoxyethoxy)-2-oxo-2H-chromen-4-yl)oxy)octanoic acid], for which the “inhibition of colony formation” value in the test on MDA-MB-231 cells [3] is given as “significant inhibition of the colony formation more potently than SAHA”. The cell apoptosis is given as 19.26% with MDA-MB-231 cells [4] (MDA-MB-231, 1 µM) and 25.14% in the test on MDA-MB-231 cells [4] (MDA-MB-231, 2 µM). Besides, the 50% inhibitory concentration (IC50) was 0.59 ± 0.03 µM with H157, greater than 100 µM in test [1], 0.36 to 2.91 µM in the test on solid tumor cell lines and greater than 100 µM in test [2]. In the test on acetyl-histone H4, the “acetylation level of histone H4” value is “increased the acetylation levels of histone H3 and H4 in a clearly dose-dependent manner”. The “acetylation level of histone H3” value in the test on acetyl-histone H3 is “increased the acetylation levels of histone H3 and H4 in a clearly dose-dependent manner”. For the same molecule, the cell cycle arrest entry in the test on MDA-MB-231 cells [5] was “arrested MDA-MB-231 cells in a dose-dependent manner”.

Regarding `O=C(CCCCCCCOc1cc(=O)oc2cc(OCc3ccc([N+](=O)[O-])cc3)ccc12)NO` [Compound 14d, N-Hydroxy-8-((7-((4-nitrobenzyl)oxy)2-oxo-2H-chromen-4-yl)oxy)octanoic acid], the IC50 at HDAC1 was 0.00172 µM.

Regarding `Cc1cccc(C)c1COc1ccc2c(OCCCCCCCC(=O)NO)cc(=O)oc2c1` [Compound 14s, N-Hydroxy-8-((7-((2,6-dimethylbenzyl)oxy)-2-oxo-2H-chromen-4-yl)oxy)octanoic acid], the IC50 on HDAC1 amounted to 0.00519 µM.

For `O=C(CCCCCCCOc1cc(=O)oc2cc(OCc3ccccc3Cl)ccc12)NO` [Compound 14h, N-Hydroxy-8-((7-((2-chlorobenzyl)oxy)-2-oxo-2H-chromen-4-yl)oxy)octanoic acid], the half-inhibitory concentration (IC50) at HDAC1 is 0.0024 µM.

`O=C(CCCCCCCOc1cc(=O)oc2cc(OCc3ccccc3[N+](=O)[O-])ccc12)NO` [Compound 14b, N-Hydroxy-8-((7-((2-nitrobenzyl)oxy)-2-oxo-2H-chromen-4-yl)oxy)octanoic acid]: on HDAC1, the concentration for half-maximal inhibition (IC50) was 0.00159 µM.

Turning to `O=C(CCCCCCCOc1cc(=O)oc2cc(OCc3cccc([N+](=O)[O-])c3)ccc12)NO` [Compound 14c, N-Hydroxy-8-((7-((3-nitrobenzyl)oxy)-2-oxo-2H-chromen-4-yl)oxy)octanoic acid], at HDAC1, the IC50 amounted to 0.00197 µM.

Take `O=C(CCCCCCC(=O)Nc1ccccc1)NO` [Compound 1, vorinostat, reference compound]: the cell apoptosis in the test on MDA-MB-231 cells [4] (MDA-MB-231, 1 µM) amounted to 7.3%; with MDA-MB-231 cells [4] (MDA-MB-231, 2 µM), 12.6%. Besides, the IC50 in the test with H157 is 1.66 ± 0.14 µM. Further, the “cells in G2/M phase” value with MDA-MB-231 cells [5] (MDA-MB-231, 1 μM, 24 h) was 11.02%.

As for `O=C(CCCCCCCOc1cc(=O)oc2cc(OCc3ccc(C(F)(F)F)cc3)ccc12)NO` [Compound 14l], at HDAC1, the IC50 was determined as 0.0055 µM.

With `Cc1ccccc1COc1ccc2c(OCCCCCCCC(=O)NO)cc(=O)oc2c1` [Compound 14p, N-Hydroxy-8-((7-((2-methylbenzyl)oxy)-2-oxo-2H-chromen-4-yl)oxy)octanoic acid], the IC50 on HDAC1 was determined as 0.00156 µM.

On to `O=C(CCCCCCCOc1cc(=O)oc2cc(OCc3c(F)cccc3F)ccc12)NO` [Compound 14m, N-Hydroxy-8-((7-((2,6-difluorobenzyl)oxy)2-oxo-2H-chromen-4-yl)oxy)octanoic acid], for which the IC50 turned out to be 7.58 ± 2.05 µM in the test on A549, 4.81 ± 0.8 µM in the test on H157, 6.05 ± 1.33 µM in the test with MCF-7 and 1.95 ± 0.29 µM with MDA-MB-231.

On to `Cc1ccc(COc2ccc3c(OCCCCCCCC(=O)NO)cc(=O)oc3c2)cc1` [Compound 14r, N-Hydroxy-8-((7-((4-methylbenzyl)oxy)2-oxo-2H-chromen-4-yl)oxy)octanoic acid], for which the IC50 at HDAC1 stood at 0.0025 µM.

As to `O=C(CCCCCCCOc1cc(=O)oc2cc(OCc3ccc(Cl)cc3)ccc12)NO` [Compound 14j, N-Hydroxy-8-((7-((4-chlorobenzyl)oxy)-2-oxo-2H-chromen-4-yl)oxy)octanoic acid], the IC50 on HDAC1 was found to be 0.00252 µM.

As for `O=C(CCCCCCCOc1cc(=O)oc2cc(OCc3cccc(Cl)c3)ccc12)NO` [Compound 14i, N-Hydroxy-8-((7-((3-chlorobenzyl)oxy)-2-oxo-2H-chromen-4-yl)oxy)octanoic acid], the IC50 at HDAC1 came out at 0.00425 µM.

Regarding `CCCOc1ccc2c(OCCCCCCCC(=O)NO)cc(=O)oc2c1` [Compound 13a, N-Hydroxy-8-((2-oxo-7-propoxy-2H-benzopyran-4-yl)oxy)octanoic acid], the “inhibition of colony formation” value with MDA-MB-231 cells [3] is listed as “significant inhibition of the colony formation more potently than SAHA”. Further, the cell apoptosis in the test with MDA-MB-231 cells [4] (MDA-MB-231, 1 µM) amounted to 13.24%; with MDA-MB-231 cells [4] (MDA-MB-231, 2 µM), 18.01%. For the same molecule, the IC50 with H157 was 1.04 ± 0.08 µM; in test [1], greater than 50 µM; in [2], greater than 50 µM. For the same molecule, the “acetylation level of histone H4” value with acetyl-histone H4 was “increased the acetylation levels of histone H3 and H4 in a clearly dose-dependent manner”. In addition, the “acetylation level of histone H3” value in the test on acetyl-histone H3 was “increased the acetylation levels of histone H3 and H4 in a clearly dose-dependent manner”. The cell cycle arrest result in the test on MDA-MB-231 cells [5] was “arrested MDA-MB-231 cells in a dose-dependent manner”.

For `O=C(CCCCCCCOc1cc(=O)oc2cc(OCc3ccc(F)cc3Cl)ccc12)NO` [Compound 14o, N-Hydroxy-8-((7-((2-chloro-4-fluorobenzyl)oxy)2-oxo-2H-chromen-4-yl)oxy)octanoic acid], the IC50 at HDAC1 came to 0.00322 µM.
